Reference: PMC10324058 (ACS Omega, 2023)

Target: α-glucosidase enzyme (Saccharomyces cerevisiae, UniProt P53341)
Assay: Kinetic study against α-glucosidase
Type: biochemical, S. cerevisiae

Chain of α-glucosidase enzyme (P53341 whole entry): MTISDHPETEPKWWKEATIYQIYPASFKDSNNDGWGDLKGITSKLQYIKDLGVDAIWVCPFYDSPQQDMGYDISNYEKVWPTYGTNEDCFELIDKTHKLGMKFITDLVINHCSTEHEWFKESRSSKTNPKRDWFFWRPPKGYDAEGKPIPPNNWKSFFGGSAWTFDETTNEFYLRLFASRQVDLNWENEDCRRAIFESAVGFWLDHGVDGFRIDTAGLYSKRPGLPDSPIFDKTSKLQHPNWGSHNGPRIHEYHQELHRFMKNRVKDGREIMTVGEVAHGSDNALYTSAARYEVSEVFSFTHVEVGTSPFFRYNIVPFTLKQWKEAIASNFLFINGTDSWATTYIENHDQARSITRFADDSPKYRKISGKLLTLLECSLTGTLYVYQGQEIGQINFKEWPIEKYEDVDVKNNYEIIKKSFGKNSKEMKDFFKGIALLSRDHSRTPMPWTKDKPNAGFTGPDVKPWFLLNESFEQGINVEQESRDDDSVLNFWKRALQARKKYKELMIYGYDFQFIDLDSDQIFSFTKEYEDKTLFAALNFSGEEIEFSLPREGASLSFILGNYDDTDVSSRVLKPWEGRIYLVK

Ki: 1300 nM | inhibition mode (Lineweaver–Burk plot: Km increased, Vmax unchanged): competitive inhibitor
SMILES: N#CC1=C(N)Oc2c(c(=O)[nH]c3ccccc23)C1c1cccc(OCc2cn(Cc3ccccc3)nn2)c1 (centres unmarked) [8k, 2-Amino-4-(3-((1-benzyl-1H-1,2,3-triazol-4-yl)methoxy)phenyl)-5-oxo-5,6-dihydro-4H-pyrano[3,2-c]quinoline-3-carbonitrile]
